Assay results taken from ChEMBL document CHEMBL6083283, “Discovery of Dual CDK6/BRD4 Inhibitor Inducing Apoptosis and Increasing the Sensitivity of Ferroptosis in Triple-Negative Breast Cancer” (J Med Chem, 2024).

What was measured:
CDK6/cyclin D3 = CDK6/cyclin D3 (Homo sapiens, UniProt Q00534); experiment: Inhibition of full length recombinant human CDK6/CyclinD3 co-expressed by baculovirus in Sf9 insect cells using histone H1 as substrate by ADP-glo kinase assay
in vitro [1] = conditions: human, MCF-10A cells
Description: Antiproliferative activity against human MCF-10A cells assessed as cell viability incubated for 72 hrs by MTT assay

BT-549 [2] = experiment: cells; conditions: Homo sapiens, BT-549, 72 h
Description: Antiproliferative activity against human BT-549 cells assessed as cell viability incubated for 72 hrs by MTT assay

MDA-MB-231 [3] = experiment: cells; conditions: Homo sapiens, MDA-MB-231, 72 h
Description: Antiproliferative activity against human MDA-MB-231 cells assessed as cell viability incubated for 72 hrs by MTT assay

MDA-MB-231 [4] = experiment: Antitumor activity against human MDA-MB-231 cells xenografted in BALB/c nude mouse assessed as tumor growth inhibition at 50 mg/kg, ip administered for 21 days; conditions: MDA-MB-231, 504 h, read-out: TGI
[5] = biological target: T1, Bromodomain-containing protein 2 (Homo sapiens, UniProt P25440)
T1 sequence (P25440 whole entry): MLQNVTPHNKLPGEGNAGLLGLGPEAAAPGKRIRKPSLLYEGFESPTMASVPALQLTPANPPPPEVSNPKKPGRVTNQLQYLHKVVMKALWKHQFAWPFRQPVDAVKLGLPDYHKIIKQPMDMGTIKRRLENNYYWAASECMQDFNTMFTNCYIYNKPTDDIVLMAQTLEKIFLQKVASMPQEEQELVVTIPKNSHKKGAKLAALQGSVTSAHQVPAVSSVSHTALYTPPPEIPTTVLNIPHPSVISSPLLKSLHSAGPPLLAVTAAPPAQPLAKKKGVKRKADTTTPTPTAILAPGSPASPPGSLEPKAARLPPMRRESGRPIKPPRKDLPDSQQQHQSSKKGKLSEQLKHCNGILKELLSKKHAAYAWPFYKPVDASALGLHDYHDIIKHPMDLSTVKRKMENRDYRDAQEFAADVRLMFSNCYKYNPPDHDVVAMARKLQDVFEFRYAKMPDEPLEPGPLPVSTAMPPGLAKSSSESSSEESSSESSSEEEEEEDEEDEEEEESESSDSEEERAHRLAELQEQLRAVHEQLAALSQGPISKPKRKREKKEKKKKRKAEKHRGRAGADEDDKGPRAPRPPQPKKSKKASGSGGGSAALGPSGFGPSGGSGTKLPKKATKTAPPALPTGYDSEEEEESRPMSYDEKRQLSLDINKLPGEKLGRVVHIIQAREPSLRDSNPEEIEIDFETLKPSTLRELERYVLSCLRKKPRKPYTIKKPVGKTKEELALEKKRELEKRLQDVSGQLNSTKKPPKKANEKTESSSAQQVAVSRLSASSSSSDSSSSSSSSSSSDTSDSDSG
Description: Inhibition of BRD2 BD2 (unknown origin)

[6] = biological target: T1, Bromodomain-containing protein 2; remark: listed apart in the source
Description: Inhibition of BRD2 BD1 (unknown origin)

[7] = biological target: CDK9/cyclin T1 (Homo sapiens) (UniProt O60563+P50750); conditions: dose 500.0 nM
Description: Inhibition of CDK9/cyclinT1 (unknown origin) at 500 nM relative to control

MDA-MB-231 [8] = experiment: Antiproliferative activity against human MDA-MB-231 cells assessed as cell viability incubated for 72 hrs in presence of Palbociclib by MTT assay; assay type: functional, cell-based; conditions: MDA-MB-231, 72 h
in vitro [9] = conditions: human, liver microsomes
Description: Metabolic stability in human liver microsome assessed as intrinsic clearance

BT-549 [10] = experiment: Antiproliferative activity against human BT-549 cells assessed as cell viability incubated for 72 hrs in presence of Palbociclib by MTT assay; assay type: functional, cell-based; conditions: BT-549, 72 h
in vitro [11] = conditions: human, liver microsomes; remark: listed apart in the source
[12] = Antiproliferative activity against human MCF-10A cells assessed as cell viability incubated for 72 hrs in presence of Palbociclib by MTT assay; assay type: toxicity, cell-based

CDK6/cyclin D3, sequence (P30281 whole entry): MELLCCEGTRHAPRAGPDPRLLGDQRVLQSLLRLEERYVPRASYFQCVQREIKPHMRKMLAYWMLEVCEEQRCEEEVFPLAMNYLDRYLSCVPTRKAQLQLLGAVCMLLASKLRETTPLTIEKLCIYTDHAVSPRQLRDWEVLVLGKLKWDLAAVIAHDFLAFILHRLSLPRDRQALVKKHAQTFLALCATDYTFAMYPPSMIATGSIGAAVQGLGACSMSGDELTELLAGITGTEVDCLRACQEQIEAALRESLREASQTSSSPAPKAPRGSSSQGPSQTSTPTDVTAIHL
CDK6/cyclin D3, sequence (Q00534 whole entry): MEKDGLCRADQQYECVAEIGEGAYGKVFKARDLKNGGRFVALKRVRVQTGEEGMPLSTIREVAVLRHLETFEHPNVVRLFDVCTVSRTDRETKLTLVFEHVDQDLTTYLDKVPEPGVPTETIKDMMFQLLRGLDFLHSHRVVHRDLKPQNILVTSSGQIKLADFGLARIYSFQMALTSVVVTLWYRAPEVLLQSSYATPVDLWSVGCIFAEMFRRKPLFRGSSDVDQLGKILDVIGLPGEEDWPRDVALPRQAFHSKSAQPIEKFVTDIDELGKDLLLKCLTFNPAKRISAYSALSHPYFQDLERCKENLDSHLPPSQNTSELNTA

SMILES | IC50 (CDK6/cyclin D3) [µM] | IC50 at 72 h (in vitro [1]) [µM] | IC50 (BT-549 [2]) [µM] | IC50 (MDA-MB-231 [3]) [µM] | inhibition in vivo at 50 mg/kg (MDA-MB-231 [4]) [%] | other results
COc1cc(OC)c2c(=O)[nH]c(-c3ccc(C(=O)N4CCCC(CNc5ncc6c(C)cc(=O)n(C7CCCC7)c6n5)C4)cc3)nc2c1 (stereo not drawn) | 0.297 | – | – | – | – | –
CC(=O)c1c(C)c2cnc(Nc3ccc(N4CCNCC4)cn3)nc2n(C2CCCC2)c1=O [PALBOCICLIB] | – | > 20 | 15.3 | 16.3 | 22 | –
COc1cc(OC)c2c(=O)[nH]c(-c3ccc(C(=O)N4CC5(CCN(c6ncc7c(C)cc(=O)n(C8CCCC8)c7n6)CC5)C4)cc3)nc2c1 | 0.036 | – | – | – | – | IC50 [5]: > 1 µM; IC50 [6]: > 1 µM; inhibition [7]: 43.4%
Cc1sc2c(c1C)C(c1ccc(Cl)cc1)=N[C@@H](CC(=O)OC(C)(C)C)c1nnc(C)n1-2 | – | > 20 | 5.06 | 6.44 | 37.6 | IC50 (MDA-MB-231 [8]): 1.72 µM; microsomal CLint (in vitro [9]): 39.5 µL/min/mg; IC50 (BT-549 [10]): 1.05 µM; half-life (in vitro [11]): 35.4 min; IC50 at 72 h [12]: > 20 µM
